Earlier results as cited in patent US20060204588A1, “Formulations of a nanoparticulate finasteride, dutasteride or tamsulosin hydrochloride, and mixtures thereof” (Elan Pharma International Limited, priority 2005, published 2006).

Q: Which “Solubility in ethanol (in words)” value (ethanol) does the source give for CCOc1ccccc1OCCNC(C)Cc1ccc(OC)c(S(N)(=O)=O)c1.Cl (single isomer, unassigned; (-)) [Tamsulosin hydrochloride] here?
A: slightly soluble

Q: And the Solubility in ether (ether)?
A: practically insoluble

Q: What about the “Solubility in glacial acetic acid” value (glacial acetic acid) of the same compound?
A: slightly soluble

Q: And the “Solubility in methanol (in words)” value (methanol)?
A: sparingly soluble

Q: And the Solubility in water?
A: sparingly soluble

Q: With C[C@]12C=CC(=O)N[C@@H]1CC[C@@H]1[C@@H]2CC[C@]2(C)[C@@H](C(=O)Nc3cc(C(F)(F)F)ccc3C(F)(F)F)CC[C@@H]12 [Dutasteride, (5α, 17β)-(2,5 bis-(trifluoromethyl)phenyl)-3-oxo-4-azaandrost-1-ene-17-carboxamide] as the compound, how does the Solubility in water read?
A: insoluble

Q: With CC(C)(C)NC(=O)[C@H]1CC[C@H]2[C@@H]3CC[C@H]4NC(=O)C=C[C@]4(C)[C@H]3CC[C@]12C [Finasteride, (5alpha,17beta)-N-(1,1-dimethylethyl)-3-oxo-4-azaandrost-1-ene-17-carboxamide] as the compound, how does the Solubility in alcohol (alcohol) read?
A: soluble

Q: And the Solubility in chloroform (chloroform)?
A: freely soluble

Q: What about the “Solubility in lower alcohol solvents” value (lower alcohol solvents) of the same compound?
A: freely soluble

Q: What about the Solubility in water of the same compound?
A: practically insoluble
